Measured values published in US20260262643A1, “HERBICIDAL BENZOXAZINES” (FMC CORPORATION, priority 2022, published 2026).

Tests used:
ragweed [1] = experiment: Test C preemergence; assay type: in vivo, Ambrosia artemisiifolia; conditions: Preemergence, 1000 g ai/ha; visual rating after 10 days, 0 to 100 scale (0 no effect, 100 complete control)
From the text: (§1) Seeds of plant species selected from barnyardgrass (Echinochloa crusgalli), blackgrass (Alopecurus myosuroides), corn (Zea mays), foxtail, giant (giant foxtail, Setaria faberi), green foxtail (Setaria viridis), goosegrass (Eleusine indica), kochia (Bassia scoparia), oat, wild (wild oat, Avena fatua), pigweed, palmer (palmer amaranth, palmer pigweed, Amaranthus palmeri), Pigweed, Redroot (redroot pigweed, Amaranthus retroflexus), ragweed (common ragweed, Ambrosia artemisiifolia), ryegrass, Italian ([…] ryegrass, Lolium multiflorum), soybean (Glycine max), and wheat (Triticum aestivum) were planted into a blend of loam soil and sand and treated preemergence with a directed soil spray using test chemicals formulated in a non-phytotoxic solvent mixture which included a surfactant. At the same time, plants selected from these crops and weed species and also galium (catchweed bedstraw, Galium aparine) and horseweed (Erigeron canadensis) were planted in pots containing the same blend of loam soil and sand and treated with postemergence applications of test chemicals formulated in the same manner. Plants ranged in height from 2 to 10 cm and were in the one- to two-leaf stage for the postemergence treatment. Treated plants and untreated controls were maintained in a greenhouse for 10 days, after which time all treated plants were compared to untreated controls and visually evaluated for injury. Plant response ratings, summarized in Table C, are based on a 0 to 100 scale where 0 is no effect and 100 is complete control. A dash (-) response means no test result.

pigweed, palmer [2] = experiment: Test C preemergence; assay type: in vivo, Amaranthus palmeri; conditions: Preemergence, 1000 g ai/ha; visual rating after 10 days, 0 to 100 scale (0 no effect, 100 complete control)
From the text: as §1

green foxtail [3] = experiment: Test C preemergence; assay type: in vivo, Setaria viridis; conditions: Preemergence, 1000 g ai/ha; visual rating after 10 days, 0 to 100 scale (0 no effect, 100 complete control)
From the text: as §1

galium = experiment: Test C postemergence; assay type: in vivo, Galium aparine; conditions: Postemergence, 1000 g ai/ha, 10 days, visual 0 to 100 scale (0 no effect, 100 complete control)
From the text: as §1

ragweed [4] = experiment: Test C postemergence; assay type: in vivo, Ambrosia artemisiifolia; conditions: Postemergence, 1000 g ai/ha, 10 days, visual 0 to 100 scale (0 no effect, 100 complete control)
From the text: as §1

ryegrass, Italian [5] = experiment: Test C postemergence; assay type: in vivo, Lolium multiflorum; conditions: Postemergence, 1000 g ai/ha, 10 days, visual 0 to 100 scale (0 no effect, 100 complete control)
From the text: as §1

blackgrass [6] = experiment: Test C preemergence; assay type: in vivo, Alopecurus myosuroides; conditions: Preemergence, 1000 g ai/ha; visual rating after 10 days, 0 to 100 scale (0 no effect, 100 complete control)
From the text: as §1

ryegrass, Italian [7] = experiment: Test C preemergence; assay type: in vivo, Lolium multiflorum; conditions: Preemergence, 1000 g ai/ha; visual rating after 10 days, 0 to 100 scale (0 no effect, 100 complete control)
From the text: as §1

blackgrass [8] = experiment: Test C postemergence; assay type: in vivo, Alopecurus myosuroides; conditions: Postemergence, 1000 g ai/ha, 10 days, visual 0 to 100 scale (0 no effect, 100 complete control)
From the text: as §1

barnyardgrass [9] = experiment: Test C postemergence; assay type: in vivo, Echinochloa crusgalli; conditions: Postemergence, 1000 g ai/ha
From the text: as §1

green foxtail [10] = experiment: Test C postemergence; assay type: in vivo, Setaria viridis; conditions: Postemergence, 1000 g ai/ha, 10 days, visual 0 to 100 scale (0 no effect, 100 complete control)
From the text: as §1

barnyardgrass [11] = experiment: Test C preemergence; assay type: in vivo, Echinochloa crusgalli; conditions: Preemergence, 1000 g ai/ha; visual rating after 10 days, 0 to 100 scale (0 no effect, 100 complete control)
From the text: as §1

horseweed = experiment: Test C postemergence; assay type: in vivo, Erigeron canadensis; conditions: Postemergence, 1000 g ai/ha, 10 days, visual 0 to 100 scale (0 no effect, 100 complete control)
From the text: as §1

kochia [12] = experiment: Test C preemergence; assay type: in vivo, Bassia scoparia; conditions: Preemergence, 1000 g ai/ha; visual rating after 10 days, 0 to 100 scale (0 no effect, 100 complete control)
From the text: as §1

corn [13] = experiment: Test C postemergence; assay type: in vivo, Zea mays; conditions: Postemergence, 1000 g ai/ha, 10 days, visual 0 to 100 scale (0 no effect, 100 complete control)
From the text: as §1

pigweed, palmer [14] = experiment: Test C postemergence; assay type: in vivo, Amaranthus palmeri; conditions: Postemergence, 1000 g ai/ha, 10 days, visual 0 to 100 scale (0 no effect, 100 complete control)
From the text: as §1

kochia [15] = experiment: Test C postemergence; assay type: in vivo, Bassia scoparia; conditions: Postemergence, 1000 g ai/ha, 10 days, visual 0 to 100 scale (0 no effect, 100 complete control)
From the text: as §1

corn [16] = experiment: Test C preemergence; assay type: in vivo, Zea mays; conditions: Preemergence, 1000 g ai/ha; visual rating after 10 days, 0 to 100 scale (0 no effect, 100 complete control)
From the text: as §1

[17] = 10 days, visual 0 to 100 scale (0 no effect, 100 complete control)

Row | Compound | Plant response rating, Ragweed (ragweed [1]) | Plant response rating, Pigweed, Palmer (pigweed, palmer [2]) | Plant response rating, Foxtail, Green (green foxtail [3]) | Plant response rating, Galium (galium) | Plant response rating, Ragweed (ragweed [4]) | Plant response rating, Ryegrass, Italian (ryegrass, Italian [5]) | Plant response rating, Blackgrass (blackgrass [6]) | Plant response rating, Ryegrass, Italian (ryegrass, Italian [7]) | Plant response rating, Blackgrass (blackgrass [8]) | Plant response rating, Barnyardgrass (barnyardgrass [9]; 0 to 100 scale, 0 no effect, 100 complete control) | Plant response rating, Foxtail, Green (green foxtail [10]) | Plant response rating, Barnyardgrass (barnyardgrass [11]) | Plant response rating, Horseweed (horseweed) | Plant response rating, Kochia (kochia [12]) | Plant response rating, Corn (corn [13]) | Plant response rating, Pigweed, Palmer (pigweed, palmer [14]) | Plant response rating, Kochia (kochia [15]) | Plant response rating, Corn (corn [16]) | Plant response rating, Barnyardgrass (barnyardgrass [9]; [17])
1 | C[C@H]1CN(C(=O)c2cccc(-c3cnnn3C)c2)c2cccc(Cl)c2O1 [Compound 239] | 0 | 80 | 100 | 70 | 50 | 0 | 30 | 70 | 10 | 30 | 30 | 50 | 30 | 30 | 0 | 70 | 40 | 0 | –
2 | CCOC(=O)c1cncn1-c1cccc(C(=O)N2C[C@H](C)Oc3c(C)cccc32)c1 [Compound 298] | 0 | 40 | 30 | 20 | 40 | 0 | 0 | 0 | 0 | – | 0 | 0 | 0 | 50 | – | 0 | 0 | – | 0
3 | Cc1cccc2c1O[C@@H](C)CN2C(=O)c1cccc(-n2cnc(Cl)c2)c1 [Compound 304] | 0 | 70 | 100 | 70 | 0 | 0 | 70 | 90 | 30 | – | 20 | 60 | 0 | 10 | – | 20 | 40 | – | 10
4 | Cc1cccc2c1O[C@@H](C)CN2C(=O)c1cccc(-n2cncc2C#N)c1 [Compound 309] | 0 | 70 | 90 | 70 | 30 | 10 | 20 | 70 | 0 | – | 10 | 0 | 30 | 10 | – | 70 | 40 | – | 10
5 | C[C@H]1CN(C(=O)c2cccc(-c3ccc(Cl)nc3)c2)c2cccc(Cl)c2O1 [Compound 383] | 0 | 10 | 20 | 0 | 0 | 0 | 0 | 0 | 10 | – | 0 | 0 | 0 | 0 | – | 50 | 50 | – | 10
6 | C[C@H]1CN(C(=O)c2cccc(-c3cncc(Cl)c3)c2)c2cccc(Cl)c2O1 [Compound 384] | 0 | 30 | 30 | 40 | 0 | 0 | 0 | 0 | 10 | – | 10 | 0 | 0 | 0 | – | 60 | 50 | – | 10
7 | COc1ccc(-c2cccc(C(=O)N3C[C@H](C)Oc4c(Cl)cccc43)c2)cn1 [Compound 385] | 0 | 50 | 90 | 60 | 50 | 10 | 0 | 50 | 30 | – | 20 | 30 | 0 | 0 | – | 70 | 70 | – | 20
8 | Cc1cc(-c2cccc(C(=O)N3C[C@H](C)Oc4c(Cl)cccc43)c2)sn1 [Compound 389] | 20 | 70 | 100 | 90 | 30 | 0 | 30 | 60 | 10 | – | 70 | 70 | 0 | 90 | – | 90 | 80 | – | 70
9 | Cc1nsc(-c2cccc(C(=O)N3C[C@H](C)Oc4c(Cl)cccc43)c2)n1 [Compound 390] | 30 | 90 | 100 | 80 | 30 | 20 | 20 | 80 | 50 | – | 20 | 80 | 0 | 50 | – | 80 | 70 | – | 50
